Values of other authors as cited in US9750250B2, “Conjugated polyelectrolytes and methods of using the same” (STC.UNM, priority 2015, dated 2017).

Details: deuterated methanol

singlet oxygen quantum yield ΦΔ of the standard: 0.79±0.02
Compound: CC(=O)c1ccc2ccccc2c1 [2′-acetonaphthone]
